pIC50: −log10 of the molar value. Active and inactive are the calls of the source. The calls are words filed in the database; no cut-off is given here.
Assays:
[1] = biological target: T1, Mitogen-activated protein kinase kinase kinase 7 (Homo sapiens, UniProt O43318); assay: Inhibition of TAK1 (unknown origin)
T1 sequence (O43318 whole entry): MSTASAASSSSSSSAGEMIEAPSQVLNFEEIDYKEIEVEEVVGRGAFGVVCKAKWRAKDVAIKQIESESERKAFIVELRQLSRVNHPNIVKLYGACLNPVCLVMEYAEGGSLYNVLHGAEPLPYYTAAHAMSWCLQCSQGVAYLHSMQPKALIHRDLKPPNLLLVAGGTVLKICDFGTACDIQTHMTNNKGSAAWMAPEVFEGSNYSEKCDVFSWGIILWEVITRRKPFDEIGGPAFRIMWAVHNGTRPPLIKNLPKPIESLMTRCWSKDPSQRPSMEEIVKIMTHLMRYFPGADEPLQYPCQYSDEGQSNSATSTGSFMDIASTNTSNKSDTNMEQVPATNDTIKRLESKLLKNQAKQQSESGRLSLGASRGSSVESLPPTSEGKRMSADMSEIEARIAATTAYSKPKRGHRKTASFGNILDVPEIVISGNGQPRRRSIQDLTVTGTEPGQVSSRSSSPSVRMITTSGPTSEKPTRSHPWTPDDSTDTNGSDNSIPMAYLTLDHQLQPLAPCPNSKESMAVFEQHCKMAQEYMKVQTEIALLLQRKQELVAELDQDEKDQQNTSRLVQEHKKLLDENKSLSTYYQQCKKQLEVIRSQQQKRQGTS

[2] = biological target: T2, Mitogen-activated protein kinase kinase kinase 5 (Homo sapiens, UniProt Q99683); assay: Inhibition of ASK1 (unknown origin)
T2 sequence (Q99683 whole entry): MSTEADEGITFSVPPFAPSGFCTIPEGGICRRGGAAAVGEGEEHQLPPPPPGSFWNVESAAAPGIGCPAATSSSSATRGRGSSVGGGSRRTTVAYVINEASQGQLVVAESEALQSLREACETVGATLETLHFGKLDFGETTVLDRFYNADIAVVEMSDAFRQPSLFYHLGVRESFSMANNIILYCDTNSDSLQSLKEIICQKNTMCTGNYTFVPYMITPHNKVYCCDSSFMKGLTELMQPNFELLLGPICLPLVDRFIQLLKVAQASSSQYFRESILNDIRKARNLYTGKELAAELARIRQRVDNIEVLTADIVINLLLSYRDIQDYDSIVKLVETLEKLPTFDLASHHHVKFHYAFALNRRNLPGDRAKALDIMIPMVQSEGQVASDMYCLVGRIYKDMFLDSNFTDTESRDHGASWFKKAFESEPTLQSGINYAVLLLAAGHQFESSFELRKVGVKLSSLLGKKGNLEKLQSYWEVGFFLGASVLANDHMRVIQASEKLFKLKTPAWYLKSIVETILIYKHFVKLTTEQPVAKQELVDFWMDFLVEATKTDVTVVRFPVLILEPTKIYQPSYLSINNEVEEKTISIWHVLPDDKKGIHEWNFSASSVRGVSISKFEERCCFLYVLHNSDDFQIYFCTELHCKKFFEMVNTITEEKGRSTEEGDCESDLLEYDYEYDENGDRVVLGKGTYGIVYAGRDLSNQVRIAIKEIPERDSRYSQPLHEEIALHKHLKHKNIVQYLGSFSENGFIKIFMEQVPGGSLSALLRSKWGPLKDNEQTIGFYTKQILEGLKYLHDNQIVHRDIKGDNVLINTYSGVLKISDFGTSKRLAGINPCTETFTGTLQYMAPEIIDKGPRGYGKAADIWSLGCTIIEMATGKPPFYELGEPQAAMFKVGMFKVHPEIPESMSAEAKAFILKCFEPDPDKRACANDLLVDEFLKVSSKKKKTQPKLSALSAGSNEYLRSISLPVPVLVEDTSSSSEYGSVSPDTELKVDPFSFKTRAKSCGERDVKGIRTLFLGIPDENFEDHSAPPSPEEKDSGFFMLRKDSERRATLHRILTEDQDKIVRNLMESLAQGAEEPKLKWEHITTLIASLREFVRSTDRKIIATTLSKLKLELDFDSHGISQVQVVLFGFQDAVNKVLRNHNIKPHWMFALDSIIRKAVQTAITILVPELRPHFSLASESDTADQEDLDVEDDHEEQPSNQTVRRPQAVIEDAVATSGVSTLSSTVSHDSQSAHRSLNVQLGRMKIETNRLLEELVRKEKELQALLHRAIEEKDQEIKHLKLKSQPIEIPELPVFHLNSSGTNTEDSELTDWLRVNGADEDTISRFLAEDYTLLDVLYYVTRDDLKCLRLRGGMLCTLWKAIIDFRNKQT

[3] = biological target: T3, Mitogen-activated protein kinase kinase kinase 6 (Homo sapiens, UniProt O95382); assay: Inhibition of ASK2 (unknown origin)
T3 sequence (O95382 whole entry): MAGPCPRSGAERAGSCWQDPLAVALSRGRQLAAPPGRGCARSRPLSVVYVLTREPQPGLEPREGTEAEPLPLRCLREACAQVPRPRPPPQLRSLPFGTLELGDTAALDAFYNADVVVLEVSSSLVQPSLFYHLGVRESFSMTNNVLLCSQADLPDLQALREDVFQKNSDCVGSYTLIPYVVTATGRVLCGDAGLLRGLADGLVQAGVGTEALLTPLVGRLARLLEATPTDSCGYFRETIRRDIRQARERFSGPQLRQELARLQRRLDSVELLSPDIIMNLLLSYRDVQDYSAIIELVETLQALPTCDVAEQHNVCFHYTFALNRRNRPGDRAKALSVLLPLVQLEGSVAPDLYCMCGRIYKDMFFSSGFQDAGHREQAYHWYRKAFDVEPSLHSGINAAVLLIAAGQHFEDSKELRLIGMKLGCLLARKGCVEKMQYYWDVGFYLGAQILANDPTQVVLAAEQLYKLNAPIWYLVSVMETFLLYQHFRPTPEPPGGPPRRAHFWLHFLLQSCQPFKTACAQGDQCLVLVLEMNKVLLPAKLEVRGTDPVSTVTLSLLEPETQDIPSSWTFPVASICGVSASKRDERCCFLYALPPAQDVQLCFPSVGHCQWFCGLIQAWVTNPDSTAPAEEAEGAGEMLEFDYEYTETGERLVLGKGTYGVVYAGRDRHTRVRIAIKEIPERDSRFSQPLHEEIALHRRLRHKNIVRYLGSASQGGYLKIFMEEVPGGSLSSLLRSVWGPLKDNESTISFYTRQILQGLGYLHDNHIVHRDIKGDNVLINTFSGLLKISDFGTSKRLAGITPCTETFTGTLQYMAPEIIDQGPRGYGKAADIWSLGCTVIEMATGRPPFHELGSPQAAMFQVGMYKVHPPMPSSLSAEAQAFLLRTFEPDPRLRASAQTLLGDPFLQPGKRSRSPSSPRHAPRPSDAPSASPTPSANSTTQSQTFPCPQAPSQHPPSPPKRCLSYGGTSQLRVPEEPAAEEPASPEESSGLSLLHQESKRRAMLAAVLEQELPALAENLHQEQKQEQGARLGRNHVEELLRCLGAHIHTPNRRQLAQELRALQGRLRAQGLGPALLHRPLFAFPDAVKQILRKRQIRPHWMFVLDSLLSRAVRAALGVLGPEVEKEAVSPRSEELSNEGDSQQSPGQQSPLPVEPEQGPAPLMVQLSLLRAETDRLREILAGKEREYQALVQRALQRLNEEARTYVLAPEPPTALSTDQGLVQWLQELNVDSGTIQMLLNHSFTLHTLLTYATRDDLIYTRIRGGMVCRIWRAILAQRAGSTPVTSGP

[4] = Inhibition of human full length recombinant CDK9/cyclin T1 using KTFCGTPEYLAPE as substrate incubated for 40 mins in presence of [gamma-33ATP] by radiometric scintillation counting analysis
HepG2 [5] = assay: Induction of cell cycle arrest in human HepG2 cells assessed as accumulation at G0/G1 phase at 0.5 to 8 uM incubated for 24 hrs by propidium iodide staining based flow cytometry; assay type: functional; settings: dose 0.5-8 µM
HepG2 [6] = assay: Induction of cell cycle arrest in human HepG2 cells assessed as accumulation at G0/G1 phase at 16 uM incubated for 24 hrs by propidium iodide staining based flow cytometry (reference value: 38.34%); assay type: functional

| Structure (SMILES) | pIC50 [1] | pIC50 [2] | pIC50 [3] | other results |
| --- | --- | --- | --- | --- |
| CC(C)n1cnnc1-c1cccc(NC(=O)Nc2ncc3ccccc3n2)n1 | 5.37 | 7.18 | 5.54 |  |
| CC(C)n1cnnc1-c1cccc(NC(=O)Nc2ccc3ccccc3n2)n1 | 5.34 | 7.16 | 5.63 |  |
| C[C@H](CO)n1cnnc1-c1cccc(NC(=O)Nc2ncc3ccccc3n2)n1 | 5.24 | 7.09 | 5.14 |  |
| CC(C)n1cnnc1-c1cccc(NC(=O)N(C)c2ccc3ccccc3n2)n1 |  | 6.50 |  |  |
| CC(C)n1cnnc1-c1cccc(NC(=O)Nc2ccccn2)n1 | 6.13 | 7.36 | 5.96 |  |
| CC(C)n1cnnc1-c1cccc(NC(=O)Nc2nn(C)c3ccccc23)n1 |  | 6.59 |  |  |
| Cc1cc(NC(=O)Nc2cccc(-c3nncn3C(C)C)n2)[nH]n1 |  | 6.85 |  |  |
| CC(C)n1cnnc1-c1cccc(NC(=O)Oc2ccccc2)n1 |  | < 5.00 |  |  |
| CC(C)n1cnnc1-c1cccc(NC(=O)Nc2ccc(-c3cnn(C)c3)cn2)n1 |  | 7.19 |  |  |
| CC(C)c1cc(NC(=O)Nc2cccc(-c3nncn3C(C)C)n2)[nH]n1 |  | 6.41 |  |  |
| C[C@H](CO)n1cnnc1-c1cccc(NC(=O)Nc2cnc3ccccc3n2)n1 | < 5.00 | 6.94 | < 5.00 |  |
| CC(C)n1cnnc1-c1cccc(NC(=O)Nc2cncc3ccccc23)n1 |  | < 5.00 |  |  |
| CC(C)n1cnnc1-c1cccc(NC(=O)Nc2cnccn2)n1 |  | 7.04 |  |  |
| CC(C)n1cnnc1-c1cccc(NC(=O)Nc2ncnc3ccccc23)n1 | 6.38 | 7.15 | 5.83 |  |
| Cc1cc(NC(=O)Nc2cccc(-c3nncn3C(C)C)n2)n(C)n1 |  | 5.38 |  |  |
| CC(C)n1cnnc1-c1cccc(NC(=O)Nc2nccc3ccccc23)n1 | 7.07 | 7.31 | 6.70 |  |
| CC(C)n1cnnc1-c1cccc(NC(=O)Nc2ccc(-c3ccn(C)n3)cn2)n1 | 5.65 | 7.19 | 5.56 |  |
| CC(C)n1cnnc1-c1cccc(NC(=O)Nc2cnn(C)c2)n1 |  | 5.73 |  |  |
| CC(C)n1cnnc1-c1cccc(NC(=O)OCc2ccccc2)n1 |  | 5.82 |  |  |
| C[C@H](CO)n1cnnc1-c1cccc(NC(=O)Nc2ccc3ccccc3n2)n1 | 5.73 | 7.32 | 5.54 |  |
| CC(C)n1cnnc1-c1cccc(NC(=O)Nc2ccc(-c3cnn(C)c3)cc2)n1 |  | 6.61 |  |  |
| CC(C)n1cnnc1-c1cccc(NC(=O)Nc2cnn3ccccc23)n1 |  | 5.44 |  |  |

| Structure (SMILES) | pIC50 [1] | pIC50 [2] | pIC50 [3] | other results |
| --- | --- | --- | --- | --- |
| CC(C)n1cnnc1-c1cccc(NC(=O)Nc2cc(C3CC3)n[nH]2)n1 |  | 6.91 |  |  |
| CCc1cc(NC(=O)Nc2cccc(-c3nncn3C(C)C)n2)[nH]n1 |  | 6.82 |  |  |
| CC(C)n1cnnc1-c1cccc(NC(=O)Nc2ccncc2)n1 |  | 6.47 |  |  |
| CC(C)n1cnnc1-c1cccc(NC(=O)Nc2ccn[nH]2)n1 |  | 7.18 |  |  |
| CC(C)n1cnnc1-c1cccc(N(C)C(=O)N(C)c2cc3ccccn3n2)n1 |  | 5.18 |  |  |
| CC(C)n1cnnc1-c1cccc(NC(=O)Nc2ccnc3ccccc23)n1 |  | 5.49 |  |  |
| CC(C)n1cnnc1-c1cccc(NC(=O)NCc2ccccc2)n1 |  | 5.15 |  |  |
| CC(C)n1cnnc1-c1cccc(NC(=O)Nc2cccnc2)n1 |  | 5.92 |  |  |
| CC(C)n1cnnc1-c1cccc(NC(=O)Nc2cnc3ccccn23)n1 |  | < 5.00 |  |  |
| CN[C@@H]1C[C@H]2O[C@@](C)([C@@H]1OC)n1c3ccccc3c3c4c(c5c6ccccc6n2c5c31)C(=O)NC4 [STAUROSPORINE] |  |  |  | pIC50 [4]: 7.22 |
| Cc1cc(NC(=O)Nc2cccc(-c3nncn3C(C)C)n2)nn1C |  | 6.85 |  |  |
| C[C@H](CO)n1cnnc1-c1cccc(NC(=O)Nc2nccc3ccccc23)n1 | 7.20 | 7.42 | 6.58 |  |
| CC(C)OC(=O)Nc1cccc(-c2nncn2C(C)C)n1 |  | 6.33 |  |  |
| CC(C)n1cnnc1-c1cccc(NC(=O)Nc2cccc(-c3cnn(C)c3)c2)n1 |  | 5.67 |  |  |
| CC(C)n1cnnc1-c1cccc(NC(=O)Nc2cc3ccccc3cn2)n1 | 5.87 | 7.30 | 5.80 |  |
| Cc1cc(F)c(C(=O)Nc2cccc(-c3nncn3C(C)C)n2)cc1-n1cnc(C2CC2)c1 |  |  |  | Activity (HepG2 [5]): inactive; Activity (HepG2 [6]): Active |
| CC(C)n1cnnc1-c1cccc(NC(=O)Nc2ccccc2)n1 |  | 5.55 |  |  |
| CC(C)n1cnnc1-c1cccc(NC(=O)Nc2ncc3[nH]cnc3n2)n1 | 5.92 | 7.49 | 6.13 |  |
| CC(C)n1cnnc1-c1cccc(NC(=O)Nc2nc3ccccc3[nH]2)n1 |  | 6.96 |  |  |
| CC(C)n1cnnc1-c1cccc(NC(=O)Nc2cc3ccccn3n2)n1 | < 5.00 | 7.07 | 5.30 |  |
| CC(C)n1cnnc1-c1cccc(NC(=O)Nc2cnc3ccccc3n2)n1 | 5.17 | 7.24 | 5.31 |  |
| CC(C)n1cnnc1-c1cccc(NC(=O)Nc2cc(C3CC3)nn2C)n1 |  | < 5.00 |  |  |
